Data published in patent publication US20230399358A1, “IMMUNOGLOBULIN PURIFICATION PEPTIDES AND THEIR USE” (North Carolina State University, priority 2019, published 2023).
Where two headings read alike, the source gives them in different places.

Experiments:
[1] = system: human polyclonal IgG in CHO-S cell culture fluid; assay: Static purification of IgG from CHO cell culture supernatant on peptide-Toyopearl resins, SDS-PAGE densitometry; settings: for % Purity (IgG over total proteins): lane FT (flow-through); for % Purity (IgG over total eluted proteins): lane R (pH 2.5)
Method: Measurement of IgG binding by peptide-based chromatographic adsorbents: For initial studies, 35 mg of MWRGWQ (SEQ ID NO:2)-Toyopearl, RHLGWF (SEQ ID NO:3)-Toyopearl, WQRHGI (SEQ ID NO:1)-Toyopearl, GWLHQR (SEQ ID NO:4)-Toyopearl, and HWRGWV (SEQ ID NO:18)-Toyopearl (control) resins were equilibrated in PBS pH 7.4, reaching a swollen volume of 0.1 mL, and subsequently incubated with 1 mg/mL IgG in 0.205 mg/mL CHO cell culture supernatant for 30 minutes. The resins were subsequently washed several times with PBS to remove non-specifically bound proteins. Elution was performed with 100 mM glycine buffer pH 2.5. Flowthrough and elution fractions were collected and analyzed by SDS PAGE under reducing conditions. The resulting gels were stained with Coomassie staining. Further, 25 mg of the adsorbents MWRGWQ (SEQ ID NO:2)-Toyopearl, NIFRGWQ (SEQ ID NO:21)-Toyopearl, MWRAWQ (SEQ ID NO:5)-Toyopearl, MWRGFQ (SEQ ID NO:7)-Toyopearl, MWRGWN (SEQ ID NO:22)-Toyopearl, (NorL) WRGWQ (SEQ ID NO:23)-Toyopearl, MGRGWQ (SEQ ID NO:24)-Toyopearl, MWRWQ (SEQ ID NO:6)-Toyopearl, MWRGGQ (SEQ ID NO:26)-Toyopearl, GWRGWQ (SEQ ID NO:8)-Toyopearl, WQRHGI (SEQ ID NO:1)-Toyopearl, WNRHGI (SEQ ID NO:12)-Toyopearl, WQRAGI (SEQ ID NO:28)-Toyopearl, WQRHAI (SEQ ID NO:11)-Toyopearl, WQRHGL (SEQ ID NO:9)-Toyopearl, FQRHGI (SEQ ID NO:29)-Toyopearl, and WQRHGV (SEQ ID NO:10)-Toyopearl resins were equilibrated in PBS pH 7.4, reaching a swollen volume of 0.1 mL, and subsequently incubated with 1 mg/mL IgG in PBS at pH 7.4 for 30 minutes. The amount of unbound IgG in the supernatant samples was quantified by Bradford assay and utilized to determine the IgG binding % by the peptide variants.
Characterization of IgG-binding peptide variants WQRHGI (SEQ ID NO:1), MWRGWQ (SEQ ID NO:2), RHLGWF (SEQ ID NO:3), and GWLHQR (SEQ ID NO:4) in competitive conditions: The four selected sequence variants were tested for their ability to purify human IgG from a CHO cell culture supernatant and found largely to mirror their in silico predictions. Even though they seemed to underperform in silico, RHLGWF (SEQ ID NO:3) and GWLHQR (SEQ ID NO:4) were tested alongside WQRHGI (SEQ ID NO:1) and MWRGWQ (SEQ ID NO:2) in these conditions in order to confirm their ability to bind IgG and examine their selectivity as predicted in silico. The feedstock was prepared by spiking human polyclonal IgG into a clarified null CHO-S cell culture fluid to obtain an IgG concentration of 1 mg/mL and a CHO HCP concentration of 0.205 mg/mL. An aliquot of 500 μL was loaded onto each peptide adsorbent in static conditions for 30 min. Following a washing step with PBS to remove loosely bound proteins, a first elution step was conducted using 0.1 M glycine buffer pH 2.5 to remove all bound proteins. Flow through fractions and pH 2.5 elution fractions were loaded neat and analyzed by SDS PAGE (FIGS. 6A-6B). The values of IgG purity in the eluted fractions were determined by densitometric analysis of the corresponding lanes on the gels, and are reported in Table 9.

[2] = system: human IgG; settings: reference [77], cited from earlier work
[3] = system: host cell protein (HCP); settings: literature value; cited from earlier work
[4] = system: IgG; settings: optimized adsorbents, Menegatti et al. 2016; cited from earlier work

HWRGWV [reference compound]
% Purity (IgG over total proteins) ([1]; Gel A): 100.00% | % Purity (IgG over total eluted proteins) ([1]; Gel A): 97.81% | % Purity (IgG over total proteins) ([1]; Gel B): 45.40% | % Purity (IgG over total eluted proteins) ([1]; Gel B): 93.79% | DBC at 10% breakthrough ([2]; residence time 2 min): 25 mg IgG/mL resin | DBC at 10% breakthrough ([2]; residence time 5 min): 36 mg IgG/mL resin | HCP LRV [3]: 1.6 | binding capacity [4]: up to 91.5 mg of IgG per mL of adsorbent
